How the values were obtained:
E1-STS [1] = target: T1, E1-STS (Homo sapiens, UniProt P08842); conditions: cited from earlier work
T1 sequence (P08842 22-583): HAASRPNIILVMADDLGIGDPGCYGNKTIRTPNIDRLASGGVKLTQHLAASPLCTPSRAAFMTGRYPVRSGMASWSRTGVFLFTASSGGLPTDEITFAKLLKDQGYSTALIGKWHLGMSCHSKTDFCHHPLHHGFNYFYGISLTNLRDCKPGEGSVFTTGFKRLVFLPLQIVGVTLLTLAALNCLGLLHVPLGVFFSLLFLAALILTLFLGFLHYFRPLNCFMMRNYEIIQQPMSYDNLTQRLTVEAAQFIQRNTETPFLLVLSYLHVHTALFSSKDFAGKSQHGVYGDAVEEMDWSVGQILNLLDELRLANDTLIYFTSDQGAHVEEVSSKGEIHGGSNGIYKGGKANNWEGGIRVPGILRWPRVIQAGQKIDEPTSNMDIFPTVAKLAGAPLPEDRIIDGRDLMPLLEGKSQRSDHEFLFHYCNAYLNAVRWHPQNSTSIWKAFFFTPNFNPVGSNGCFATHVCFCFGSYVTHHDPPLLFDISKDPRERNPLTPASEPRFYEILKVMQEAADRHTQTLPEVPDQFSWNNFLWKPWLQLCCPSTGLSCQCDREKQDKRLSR

uterotrophic activity = conditions: cited from earlier work; for oestrogenicity: rat, in vivo
[2] = cited from earlier work
E1-STS [3] = target: T1, E1-STS; design: endogenous in cells; host or cells: MCF-7 cells (intact); conditions: intact MCF-7 cells, 0.1 nM; cited from earlier work
DU145 cells = experiment: Antiproliferative assay in DU145 cells, WST-1 cell proliferation assay, 96 hours (GI50); type: cell-based; conditions: Homo sapiens, DU-145, 96 hours post-treatment
How it was run: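 DU145 cells seeded at 5000 cells/well, treated with […] compound or vehicle for 96 h. Viability read by WST-1, expressed as percent of mean control, GI50 derived; triplicate experiments.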

Row | Molecule | GI50 (DU145 cells; triplicate) [µM] | melting point | other results
1 | COc1cc2c(cc1OS(N)(=O)=O)CC[C@@H]1[C@@H]2CC[C@]2(C)C(=O)CC[C@@H]12 [2-methoxyoestrone-3-O-sulphamate] |  |  | potency as steroid sulphatase inhibitor relative to EMATE (E1-STS [1]): equipotent with EMATE; oestrogenicity (uterotrophic activity): devoid of oestrogenicity
2 | C[C@]12CC[C@@H]3c4ccc(OS(=O)(=O)O)cc4CC[C@H]3[C@@H]1CCC2=O [E1S, oestrone sulphate] |  |  | half-life in blood [2]: 10 to 12 h
3 | CC12CCC3c4ccc(OS(N)(=O)=O)cc4CCC3C1CCC2=O (centres unmarked) [EMATE, oestrone-3-sulphamate] |  |  | mode of E1-STS enzyme inhibition (inactivation) (E1-STS [1]): time- and concentration-dependent manner; oestrogenicity (uterotrophic activity): potent oestrogenic properties; oral uterotrophic activity relative to estradiol (uterotrophic activity; rats, oral): 100 times; inhibition of E1-STS activity (E1-STS [3]): more than 99%
4 | COc1cc2c(cc1O)CCN(S(=O)(=O)c1cccc(Cl)c1)C2 [compound 182, 2-(3-Chloro-benzenesulfonyl)-6-hydroxy-7-methoxy-1,2,3,4-tetrahydroisoquinoline] | > 100 | 175 to 178 °C | 
5 | COc1cc2c(cc1O)CCN(S(=O)(=O)c1ccccc1C#N)C2 [compound 183, 2-(2-Cyano-benzenesulfonyl)-6-hydroxy-7-methoxy-1,2,3,4-tetrahydroisoquinoline] | > 100 | 164 to 167 °C | 
6 | COc1cc2c(cc1O)CCN(S(=O)(=O)c1ccccc1OC)C2 [compound 184, 6-Hydroxy-7-methoxy-2-(2-methoxy-benzenesulfonyl)-1,2,3,4-tetrahydroisoquinoline] | > 100 | 140 to 142 °C | 
7 | COc1ccc(S(=O)(=O)N2CCc3cc(O)c(OC)cc3C2)cc1 [compound 185, 6-Hydroxy-7-methoxy-2-(4-methoxy-benzenesulfonyl)-1,2,3,4-tetrahydroisoquinoline] | > 100 | 147 to 149 °C | 
8 | COc1cc2c(cc1O)CCN(S(=O)(=O)c1cccc(C#N)c1)C2 [compound 186, 2-(3-Cyano-benzenesulfonyl)-6-hydroxy-7-methoxy-1,2,3,4-tetrahydroisoquinoline] | > 100 | 204 to 206 °C | 
9 | COc1cc2c(cc1OCc1ccccc1)CCN(S(=O)(=O)c1ccccc1OC)C2=O [compound 197, 6-Benzyloxy-7-methoxy-2-(2-methoxy-benzenesulfonyl)-3,4-dihydro-2H-isoquinolin-1-one] | > 100 | 202 to 203 °C | 
10 | COc1cc2c(cc1OCc1ccccc1)CCN(S(=O)(=O)c1cccc(Cl)c1)C2=O [compound 199, 6-Benzyloxy-2-(3-chloro-benzenesulfonyl)-7-methoxy-3,4-dihydro-2H-isoquinolin-1-one] | > 100 | 155 to 158 °C | 
11 | COc1cc2c(cc1O)CCN(S(=O)(=O)c1ccccc1OC)C2=O [compound 200, 6-Hydroxy-7-methoxy-2-(2-methoxy-benzenesulfonyl)-3,4-dihydro-2H-isoquinolin-1-one] | > 100 | 222 to 224 °C | 
12 | COc1cccc(S(=O)(=O)N2CCc3cc(O)c(OC)cc3C2=O)c1 [compound 201, 6-Hydroxy-7-methoxy-2-(3-methoxy-benzenesulfonyl)-3,4-dihydro-2H-isoquinolin-1-one] | > 100 | 195 to 197 °C | 
13 | COc1ccc(S(=O)(=O)N2CCc3cc(O)c(OC)cc3C2=O)cc1 [compound 202, 6-Hydroxy-7-methoxy-2-(4-methoxy-benzenesulfonyl)-3,4-dihydro-2H-isoquinolin-1-one] | > 100 | 202 to 204 °C | 
14 | COc1cc2c(cc1O)CCN(S(=O)(=O)c1cccc(Cl)c1)C2=O [compound 203, 2-(3-Chloro-benzenesulfonyl)-6-hydroxy-7-methoxy-3,4-dihydro-2H-isoquinolin-1-one] |  | 178 to 181 °C | GI50 (DU145 cells; 50% growth inhibition): > 100 µM
15 | COc1cccc(CN2Cc3cc(OC)c(O)cc3CC2C)c1 (centres unmarked) [compound 217, 2-(3-Methoxybenzyl)-1,2,3,4-tetrahydro-7-methoxy-3-methylisoquinolin-6-ol] |  | 100 to 105 °C | GI50 (DU145 cells; 50% growth inhibition): < 10 µM
16 | COc1cc(CN2Cc3cc(OC)c(O)cc3CC2C)cc(OC)c1 (centres unmarked) [compound 218, 2-(3,5-Dimethoxybenzyl)-1,2,3,4-tetrahydro-7-methoxy-3-methylisoquinolin-6-ol] |  | 155 to 158 °C | GI50 (DU145 cells; 50% growth inhibition): 10 to 50 µM
17 | COc1cc2c(cc1O)CC(C)(C)N(C(=O)c1cc(OC)c(OC)c(OC)c1)C2 [compound 234, (6-Hydroxy-7-methoxy-3,3-dimethyl-3,4-dihydro-1H-isoquinolin-2-yl)-(3,4,5-trimethoxy-phenyl)-methanone] |  | 159 to 162 °C | GI50 (DU145 cells; 50% growth inhibition): > 100 µM
18 | COc1cc2c(cc1OS(N)(=O)=O)CC(C)(C)N(C(=O)c1cc(OC)c(OC)c(OC)c1)C2 [compound 236, Sulfamic acid 7-methoxy-3,3-dimethyl-2-(3,4,5-trimethoxy-benzoyl)-1,2,3,4-tetrahydro-isoquinolin-6-yl ester] |  | 172 to 176 °C | GI50 (DU145 cells; 50% growth inhibition): > 100 µM
19 | COc1cc(OC)cc(C(=O)N2Cc3cc(OC)c(OS(N)(=O)=O)cc3CC2(C)C)c1 [compound 237, Sulfamic acid 2-(3,5-dimethoxy-benzoyl)-7-methoxy-3,3-dimethyl-1,2,3,4-tetrahydro-isoquinolin-6-yl ester] |  | > 180 °C (dec.) | GI50 (DU145 cells; 50% growth inhibition): > 100 µM
20 | oestrone-3-N-sulphamate |  |  | mode of E1-STS enzyme inhibition (inactivation) (E1-STS [1]): weaker non-time-dependent inactivators
21 | oestrone-3-S-sulphamate |  |  | mode of E1-STS enzyme inhibition (inactivation) (E1-STS [1]): weaker non-time-dependent inactivators

Reference: US8394825B2, “Compound” (Sterix Limited, priority 2007, dated 2013)
